Data: US5238936A, “Trisubstituted triazines” (Adir et Compagnie, priority 1991, dated 1993)

Columns and labels:
[1] = system: line DC-3F/AD; test: Cytotoxicity (Microculture Tetrazolium Assay): reversal of resistance to actinomycin D, line DC-3F/AD; type: cell-based, Chinese hamster; details: 4 days
From the text: The pharmacological study of the compounds of the present invention consisted first of all in an evaluation in vitro carried out on resistant cells. The parameter measured is the cytotoxicity of the antitumour drug, quantified in the absence and in the presence of the reversing compound.
The cells are distributed on microplates and exposed to the cytotoxic compounds (actinomycin D for line DC-3F/AD and adriamycin for line KB-Al) at 9 concentrations (2 by 2 series dilutions). The compounds tested for their capacity to reverse MDR are added at the same time as the cytotoxic agent.
The cells are then incubated for 4 days. […] The results are expressed as a reversion factor (RF): PG,29 [formula]

[2] = system: line DC-3F/AD; test: Flow cytometry: intracellular accumulation of adriamycin by cells of the line DC-3F/AD; type: cell-based, Chinese hamster; details: ADR 50 μM, 5 hours
From the text: Also measured was the effect of the compounds on the intracellular concentration of the cytotoxic agent. In effect, the known compounds for reversing MDR act by increasing the intracellular concentration of cytotoxic agent. This effect is the consequence of inhibiting the action of gP 170 which is responsible for the efflux of the drug.
By measuring that fluorescence, it is thus possible to obtain a relative measurement of the intracellular concentration of ADR.
The cells 500×10^3 per ml were exposed simultaneously to ADR at a fixed concentration (50 μM) and to the tested compounds at various concentrations. After 5 hours' incubation, the intracellular accumulation of ADR was evaluated by FCM. […] The analysis of each of the samples was carried out on a total of 10,000 cells at a rate of 1,000 cells per second.
The results were presented in the form of linear histograms of the intracellular ADR fluorescence.
Expression of the results: for each of the histograms the mean fluorescence per channel (MEAN) was determined by the information system of the apparatus. For all experiments:
a negative control (cells without ADR) fixed the autofluorescence threshold.
a positive control (cells with ADR) determined the MEAN value=MN1.
the "test" tubes (cells with ADR and with compound) were used to determine, for each of the compounds and at each of the concentrations, the MEAN values=MN2.
The results are expressed in the form of variations from the mean fluorescence obtained for each of the "test" tubes (MN2) in relation to the mean fluorescence obtained with the positive control (MNl): VAR-MEAN=MN2-MN1. The parameter expressed is thus the increase in ADR fluorescence in the presence of the tested compounds.

C=CCNc1nc(NCC=C)nc(N2CCC(NC3c4ccccc4CCc4ccccc43)CC2)n1 [Example 4, 2,4-diallylamino-6-[4-(10,11-dihydro-5H-dibenzo[a,d]cyclohepten-5-ylamino)piperidin-1-yl]-1,3,5-triazine]
Reversion factors (cytotoxicity) with the line DC-3F/AD ([1]; 0.5 μM compound): 21
Reversion factors (cytotoxicity) with the line DC-3F/AD ([1]; 1 μM compound): 66
Reversion factors (cytotoxicity) with the line DC-3F/AD ([1]; 5 μM compound): 755
VAR-MEAN (increase in ADR fluorescence), line DC-3F/AD ([2]; 1.0 μM compound): 16.2
VAR-MEAN (increase in ADR fluorescence), line DC-3F/AD ([2]; 5.0 μM compound): 25.5
VAR-MEAN (increase in ADR fluorescence), line DC-3F/AD ([2]; 10 μM compound): 28.1
VAR-MEAN (increase in ADR fluorescence), line DC-3F/AD ([2]; […] compound): 21.8

C=CCNc1nc(NCC=C)nc(N2CCC(CNC3c4ccccc4CCc4ccccc43)CC2)n1 [Example 23, 2,4-diallylamino-6-{4-[(10,11-dihydro-5H-dibenzo[a,d]cyclohepten-5-yl)aminomethyl]piperidin-1-yl}-1,3,5-triazine]
Reversion factors (cytotoxicity) with the line DC-3F/AD ([1]; 1 μM compound): 1.4
Reversion factors (cytotoxicity) with the line DC-3F/AD ([1]; 5 μM compound): 173
VAR-MEAN (increase in ADR fluorescence), line DC-3F/AD ([2]; 1.0 μM compound): 10.0
VAR-MEAN (increase in ADR fluorescence), line DC-3F/AD ([2]; 5.0 μM compound): 14.0
VAR-MEAN (increase in ADR fluorescence), line DC-3F/AD ([2]; 10 μM compound): 20.5
VAR-MEAN (increase in ADR fluorescence), line DC-3F/AD ([2]; […] compound): 14.6

C=CCNc1nc(NCC=C)nc(N2CCN(CC3c4ccccc4CCc4ccccc43)CC2)n1 [Example 25, 2,4-diallylamino-6-{4-[(10,11-dihydro-5H-dibenzo[a,d]cyclohepten-5-yl)methyl]piperazin-1-yl}-1,3,5-triazine]
Reversion factors (cytotoxicity) with the line DC-3F/AD ([1]; 1 μM compound): 13
Reversion factors (cytotoxicity) with the line DC-3F/AD ([1]; 5 μM compound): 464
VAR-MEAN (increase in ADR fluorescence), line DC-3F/AD ([2]; 1.0 μM compound): 9.9
VAR-MEAN (increase in ADR fluorescence), line DC-3F/AD ([2]; 5.0 μM compound): 17.6
VAR-MEAN (increase in ADR fluorescence), line DC-3F/AD ([2]; 10 μM compound): 24.5
VAR-MEAN (increase in ADR fluorescence), line DC-3F/AD ([2]; […] compound): 14.7

C=CCNc1nc(NCC=C)nc(N2CCC(NCC3c4ccccc4CSc4ccccc43)CC2)n1 (racemic) [Example 26, 2,4-diallylamino-6-{4-[((R,S)-6,11-dihydro-dibenzo[b,e]thiepin-11-yl)methylamino]piperidin-1-yl}-1,3,5-triazine]
Reversion factors (cytotoxicity) with the line DC-3F/AD ([1]; 1 μM compound): 6.8
Reversion factors (cytotoxicity) with the line DC-3F/AD ([1]; 5 μM compound): 866.6
VAR-MEAN (increase in ADR fluorescence), line DC-3F/AD ([2]; 1.0 μM compound): 4.3
VAR-MEAN (increase in ADR fluorescence), line DC-3F/AD ([2]; 5.0 μM compound): 33.5
VAR-MEAN (increase in ADR fluorescence), line DC-3F/AD ([2]; 10 μM compound): 32.6
VAR-MEAN (increase in ADR fluorescence), line DC-3F/AD ([2]; […] compound): 17.8

C=CCNc1nc(NCC=C)nc(N2CCN(NCC3c4ccccc4CCc4ccccc43)CC2)n1 [Example 24, 2,4-diallylamino-6-{4-[(10,11-dihydro-5H-dibenzo[a,d]cyclohepten-5-yl)methylamino]piperazin-1-yl}-1,3,5-triazine]
Reversion factors (cytotoxicity) with the line DC-3F/AD ([1]; 0.5 μM compound): 2.5
Reversion factors (cytotoxicity) with the line DC-3F/AD ([1]; 1 μM compound): 14
Reversion factors (cytotoxicity) with the line DC-3F/AD ([1]; 5 μM compound): 329
VAR-MEAN (increase in ADR fluorescence), line DC-3F/AD ([2]; 1.0 μM compound): 12.8
VAR-MEAN (increase in ADR fluorescence), line DC-3F/AD ([2]; 5.0 μM compound): 21.1
VAR-MEAN (increase in ADR fluorescence), line DC-3F/AD ([2]; 10 μM compound): 28.2
VAR-MEAN (increase in ADR fluorescence), line DC-3F/AD ([2]; […] compound): 16.9

C=CCNc1nc(NCC=C)nc(N2CCC(NCC3c4ccccc4Oc4ccccc43)CC2)n1 [Example 9, 2,4-diallylamino-6-[4-(xanthen-9-ylmethylamino)-piperidin-1-yl]-1,3,5-triazine]
Reversion factors (cytotoxicity) with the line DC-3F/AD ([1]; 0.5 μM compound): 4.8
Reversion factors (cytotoxicity) with the line DC-3F/AD ([1]; 1 μM compound): 39
Reversion factors (cytotoxicity) with the line DC-3F/AD ([1]; 5 μM compound): 844
VAR-MEAN (increase in ADR fluorescence), line DC-3F/AD ([2]; 1.0 μM compound): 13.4
VAR-MEAN (increase in ADR fluorescence), line DC-3F/AD ([2]; 5.0 μM compound): 19.4
VAR-MEAN (increase in ADR fluorescence), line DC-3F/AD ([2]; 10 μM compound): 25.7
VAR-MEAN (increase in ADR fluorescence), line DC-3F/AD ([2]; […] compound): 18.1

C=CCNc1nc(NCC=C)nc(N2CCC(N(C)CC3c4ccccc4CCc4ccccc43)CC2)n1 [Example 30, 2,4-diallylamino-6-{4-[N-((10,11-dihydro-5H-dibenzo[a,d]cyclohepten-5-yl)methyl)-N-methylamino]piperidin-1-yl}-1,3,5-triazine]
Reversion factors (cytotoxicity) with the line DC-3F/AD ([1]; 1 μM compound): 2.3
Reversion factors (cytotoxicity) with the line DC-3F/AD ([1]; 5 μM compound): 834.0
VAR-MEAN (increase in ADR fluorescence), line DC-3F/AD ([2]; 1.0 μM compound): 5.9
VAR-MEAN (increase in ADR fluorescence), line DC-3F/AD ([2]; 5.0 μM compound): 17.8
VAR-MEAN (increase in ADR fluorescence), line DC-3F/AD ([2]; 10 μM compound): 19.0
VAR-MEAN (increase in ADR fluorescence), line DC-3F/AD ([2]; […] compound): 12.3

C=CCNc1nc(NCC=C)nc(N2CCC(NCC3c4ccccc4CS(=O)(=O)c4ccccc43)CC2)n1 (racemic) [Example 32, 2,4-diallylamino-6-{4-[((R,S)-6,11-dihydro-5,5-dioxo-dibenzo[b,e]thiepin-11-yl)methylamino]piperidin-1-yl}-1,3,5-triazine]
Reversion factors (cytotoxicity) with the line DC-3F/AD ([1]; 1 μM compound): 1.3
Reversion factors (cytotoxicity) with the line DC-3F/AD ([1]; 5 μM compound): 27.4
VAR-MEAN (increase in ADR fluorescence), line DC-3F/AD ([2]; 1.0 μM compound): 0.0
VAR-MEAN (increase in ADR fluorescence), line DC-3F/AD ([2]; 5.0 μM compound): 12.4
VAR-MEAN (increase in ADR fluorescence), line DC-3F/AD ([2]; […] compound): 1.9

C=CCNc1nc(NCC=C)nc(NCC2CCN(CC3c4ccccc4CCc4ccccc43)CC2)n1 [Example 8, 2,4-diallylamino-6-{[1-[(10,11-dibenzo[a,d]cyclohepten-5-yl)methyl]piperidin-4-yl]methylamino}-1,3,5-triazine]
Reversion factors (cytotoxicity) with the line DC-3F/AD ([1]; 0.5 μM compound): 0.8
Reversion factors (cytotoxicity) with the line DC-3F/AD ([1]; 1 μM compound): 1.6
Reversion factors (cytotoxicity) with the line DC-3F/AD ([1]; 5 μM compound): 353
VAR-MEAN (increase in ADR fluorescence), line DC-3F/AD ([2]; 1.0 μM compound): 1.3
VAR-MEAN (increase in ADR fluorescence), line DC-3F/AD ([2]; 5.0 μM compound): 19.3
VAR-MEAN (increase in ADR fluorescence), line DC-3F/AD ([2]; 10 μM compound): 21.0
VAR-MEAN (increase in ADR fluorescence), line DC-3F/AD ([2]; […] compound): 11.4

C=CCNc1nc(NCC=C)nc(N2CCC(NCC34CCC(c5ccccc53)c3ccccc34)CC2)n1 [Example 10, 2,4-diallylamino-6-{4-[(9,10-dihydro-9,10-ethanoanthracen-9-yl)methylamino]piperidin-1-yl}-1,3,5-triazine]
Reversion factors (cytotoxicity) with the line DC-3F/AD ([1]; 0.5 μM compound): 1
Reversion factors (cytotoxicity) with the line DC-3F/AD ([1]; 1 μM compound): 1.9
Reversion factors (cytotoxicity) with the line DC-3F/AD ([1]; 5 μM compound): 96
VAR-MEAN (increase in ADR fluorescence), line DC-3F/AD ([2]; 1.0 μM compound): 12.3
VAR-MEAN (increase in ADR fluorescence), line DC-3F/AD ([2]; 5.0 μM compound): 20.2
VAR-MEAN (increase in ADR fluorescence), line DC-3F/AD ([2]; 10 μM compound): 30.7
VAR-MEAN (increase in ADR fluorescence), line DC-3F/AD ([2]; […] compound): 13.5

C=CCNc1nc(NCC=C)nc(N2CCC(NCC3c4ccccc4NC(=O)c4ccccc43)CC2)n1 (racemic) [Example 27, 2,4-diallylamino-6-{4-[((R,S)-6,11-dihydro-dibenzo[b,e]-6-oxoazepin-11-yl)methylamino]piperidin-1-yl}-1,3,5-triazine]
Reversion factors (cytotoxicity) with the line DC-3F/AD ([1]; 1 μM compound): 1.1
Reversion factors (cytotoxicity) with the line DC-3F/AD ([1]; 5 μM compound): 2.1
VAR-MEAN (increase in ADR fluorescence), line DC-3F/AD ([2]; 1.0 μM compound): 0.0
VAR-MEAN (increase in ADR fluorescence), line DC-3F/AD ([2]; 5.0 μM compound): 2.2
VAR-MEAN (increase in ADR fluorescence), line DC-3F/AD ([2]; […] compound): 0.0

C=CCNc1nc(NCC=C)nc(NCCN2CCN(C3c4ccccc4CCc4ccccc43)CC2)n1 [Example 2, 2,4-Diallylamino-6-{2-[4-(10,11-dihydro-5H-dibenzo[a,d]cyclohepten-5-yl)piperazin-1-yl]ethylamino}-1,3,5-triazine]
Reversion factors (cytotoxicity) with the line DC-3F/AD ([1]; 0.5 μM compound): 0.8
Reversion factors (cytotoxicity) with the line DC-3F/AD ([1]; 1 μM compound): 1
VAR-MEAN (increase in ADR fluorescence), line DC-3F/AD ([2]; 1.0 μM compound): 10.1
VAR-MEAN (increase in ADR fluorescence), line DC-3F/AD ([2]; 5.0 μM compound): 10.2
VAR-MEAN (increase in ADR fluorescence), line DC-3F/AD ([2]; 10 μM compound): 10.5
VAR-MEAN (increase in ADR fluorescence), line DC-3F/AD ([2]; […] compound): 14.7
